Values quoted from earlier work, collected in patent publication US20130064804A1, “BIO-REPLENISHMENT (BioRep) FOR IMPROVING SLEEP ARCHITECTURE” (Naidu LP, priority 2011, published 2013).

Columns and labels:
[1] = in vivo
[2] = typical dose (1 to 3 mg)

| elevation of blood melatonin levels above normal [2] | SMILES | first-pass: fraction metabolized in the liver [1] |
| --- | --- | --- |
|  | C[S+](CC[C@H](N)C(=O)O)C[C@H]1O[C@@H](n2cnc3c(N)ncnc32)[C@H](O)[C@@H]1O (some centres unmarked) [SAMe, S-adenosylmethionine] | approximately 50% |
| 1 to 20 times | COc1ccc2[nH]cc(CCNC(C)=O)c2c1 [melatonin, N-acetyl-5-methoxytryptamine] |  |
